According to article PMC4639830, “Inhibition of DYRK1A and GSK3B induces human β-cell proliferation” (Nature Communications, 2015):

Tests used:
Test in all cases: Kinase profiling
Format in all cases: biochemical
TRKA (NTRK1) = molecular target: T1, TRKA (NTRK1) (Homo sapiens, UniProt P04629); conditions: read-out: Percent inhibition, TRKA (NTRK1); for inhibition at 1 µM: Conc 1000 nM
T1 construct: purchased Ambit (KINOMEscan)
Source text: (§1) ; Fig. 5a; Supplementary Table 1). We focused on Dyrk1a because other kinases inhibited by aminopyrazine compounds were not highly expressed in β-cells and because Dyrk1a was known to inhibit the NFAT pathway that was previously implicated in β-cell proliferation. We used molecular modelling to dock the aminopyrazine compounds into the published structure of Dyrk1a (protein databank accession code 2vx3.pdb; Fig. 5b).

bRAF = molecular target: T2, bRAF (Homo sapiens, UniProt P15056); conditions: Conc 1000 nM; read-out: Percent inhibition, bRAF
T2 construct: purchased Ambit KINOMEscan
Source text: as §1

MEK1 = molecular target: T3, MEK1 (Homo sapiens, UniProt Q02750); conditions: Conc 1000 nM; read-out: Percent inhibition, MEK1
T3 construct: purchased Ambit (KINOMEscan)
T3 sequence (Q02750 whole entry): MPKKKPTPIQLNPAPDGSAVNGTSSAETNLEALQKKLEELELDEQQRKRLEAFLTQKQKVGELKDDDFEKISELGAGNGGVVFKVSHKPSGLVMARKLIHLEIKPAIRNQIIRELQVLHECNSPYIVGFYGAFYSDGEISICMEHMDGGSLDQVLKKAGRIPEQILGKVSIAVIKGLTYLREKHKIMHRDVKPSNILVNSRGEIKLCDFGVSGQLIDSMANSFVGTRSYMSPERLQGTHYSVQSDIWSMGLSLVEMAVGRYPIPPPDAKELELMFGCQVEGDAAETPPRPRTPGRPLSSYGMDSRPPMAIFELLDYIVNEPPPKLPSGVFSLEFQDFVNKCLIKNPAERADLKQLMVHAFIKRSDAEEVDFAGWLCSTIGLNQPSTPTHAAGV
Source text: as §1

JNK2 = molecular target: T4, JNK2 (Homo sapiens, UniProt P45984); conditions: Conc 1000 nM; read-out: Percent inhibition, JNK2
T4 construct: purchased Ambit KINOMEscan
Source text: as §1

FGFR3 = molecular target: T5, FGFR3 (Homo sapiens, UniProt P22607); conditions: Conc 1000 nM; read-out: Percent inhibition, FGFR3
T5 construct: purchased Ambit KINOMEscan
Source text: as §1

BTK = molecular target: T6, BTK (Homo sapiens, UniProt Q06187); conditions: Conc 1000 nM; read-out: Percent inhibition, BTK
T6 construct: purchased Ambit KINOMEscan
T6 sequence (Q06187 whole entry): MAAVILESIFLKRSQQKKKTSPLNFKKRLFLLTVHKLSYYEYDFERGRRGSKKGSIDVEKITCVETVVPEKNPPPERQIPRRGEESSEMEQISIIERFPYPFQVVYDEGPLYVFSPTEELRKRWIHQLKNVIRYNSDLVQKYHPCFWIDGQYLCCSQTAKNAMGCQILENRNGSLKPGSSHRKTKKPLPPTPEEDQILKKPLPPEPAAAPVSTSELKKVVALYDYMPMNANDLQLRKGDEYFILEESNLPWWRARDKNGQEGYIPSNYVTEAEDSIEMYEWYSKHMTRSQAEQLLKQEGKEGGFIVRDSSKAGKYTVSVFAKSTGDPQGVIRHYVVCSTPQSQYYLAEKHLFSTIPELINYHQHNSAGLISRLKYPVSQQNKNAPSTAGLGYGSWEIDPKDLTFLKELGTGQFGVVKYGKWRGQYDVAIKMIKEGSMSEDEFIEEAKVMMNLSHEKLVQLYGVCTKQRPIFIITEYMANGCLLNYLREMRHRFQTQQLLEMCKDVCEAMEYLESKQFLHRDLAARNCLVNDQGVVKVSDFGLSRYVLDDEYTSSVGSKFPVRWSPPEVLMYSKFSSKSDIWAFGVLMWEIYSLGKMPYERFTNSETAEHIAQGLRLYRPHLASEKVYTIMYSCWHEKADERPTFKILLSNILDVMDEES
Source text: as §1

AURORA-B = molecular target: T7, AURORA-B (Homo sapiens, UniProt Q96GD4); conditions: Conc 1000 nM; read-out: Percent inhibition, AURORA-B
T7 construct: purchased Ambit KINOMEscan
T7 sequence (Q96GD4 whole entry): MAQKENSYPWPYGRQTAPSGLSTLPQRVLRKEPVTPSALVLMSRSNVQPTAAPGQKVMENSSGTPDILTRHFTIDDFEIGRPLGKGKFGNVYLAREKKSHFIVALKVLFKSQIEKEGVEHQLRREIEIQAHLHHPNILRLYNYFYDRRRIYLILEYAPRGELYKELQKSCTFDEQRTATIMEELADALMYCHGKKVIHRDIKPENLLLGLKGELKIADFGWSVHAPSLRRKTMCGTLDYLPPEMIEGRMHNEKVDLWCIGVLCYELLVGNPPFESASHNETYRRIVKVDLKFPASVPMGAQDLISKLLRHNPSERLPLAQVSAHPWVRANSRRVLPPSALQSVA
Source text: as §1

IGF1R = molecular target: T8, IGF1R (Homo sapiens, UniProt P08069); conditions: Conc 1000 nM; read-out: Percent inhibition, IGF1R
T8 construct: purchased Ambit KINOMEscan
Source text: as §1

PKCalpha = molecular target: T9, PKCalpha (Homo sapiens, UniProt P17252); conditions: read-out: Percent inhibition, PKCalpha; for inhibition at 1 µM: Conc 1000 nM
T9 construct: purchased Ambit (KINOMEscan)
Source text: as §1

ZAP70 = molecular target: T10, ZAP70 (Homo sapiens, UniProt P43403); conditions: read-out: Percent inhibition, ZAP70; for inhibition at 1 µM: Conc 1000 nM
T10 construct: purchased Ambit (KINOMEscan)
T10 sequence (P43403 1-619): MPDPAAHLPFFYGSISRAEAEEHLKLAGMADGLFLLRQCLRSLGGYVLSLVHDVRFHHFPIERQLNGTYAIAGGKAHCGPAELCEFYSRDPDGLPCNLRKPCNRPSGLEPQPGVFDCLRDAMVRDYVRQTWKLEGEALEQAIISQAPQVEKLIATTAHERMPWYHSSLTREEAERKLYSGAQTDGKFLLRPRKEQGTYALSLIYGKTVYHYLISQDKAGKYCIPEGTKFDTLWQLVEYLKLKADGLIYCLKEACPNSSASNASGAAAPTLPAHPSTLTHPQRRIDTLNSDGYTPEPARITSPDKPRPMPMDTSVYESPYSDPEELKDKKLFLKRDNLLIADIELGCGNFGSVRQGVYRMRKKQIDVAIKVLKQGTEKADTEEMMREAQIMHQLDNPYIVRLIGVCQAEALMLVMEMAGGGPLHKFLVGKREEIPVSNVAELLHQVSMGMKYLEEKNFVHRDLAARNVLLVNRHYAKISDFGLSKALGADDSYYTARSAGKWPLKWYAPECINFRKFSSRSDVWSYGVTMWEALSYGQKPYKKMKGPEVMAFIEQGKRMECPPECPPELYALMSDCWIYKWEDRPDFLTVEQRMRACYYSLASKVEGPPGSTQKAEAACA
Source text: as §1

EphB3 = molecular target: T11, EphB3 (Homo sapiens, UniProt P54753); conditions: Conc 1000 nM; read-out: Percent inhibition, EphB3
T11 construct: purchased Ambit KINOMEscan
T11 sequence (P54753 34-998): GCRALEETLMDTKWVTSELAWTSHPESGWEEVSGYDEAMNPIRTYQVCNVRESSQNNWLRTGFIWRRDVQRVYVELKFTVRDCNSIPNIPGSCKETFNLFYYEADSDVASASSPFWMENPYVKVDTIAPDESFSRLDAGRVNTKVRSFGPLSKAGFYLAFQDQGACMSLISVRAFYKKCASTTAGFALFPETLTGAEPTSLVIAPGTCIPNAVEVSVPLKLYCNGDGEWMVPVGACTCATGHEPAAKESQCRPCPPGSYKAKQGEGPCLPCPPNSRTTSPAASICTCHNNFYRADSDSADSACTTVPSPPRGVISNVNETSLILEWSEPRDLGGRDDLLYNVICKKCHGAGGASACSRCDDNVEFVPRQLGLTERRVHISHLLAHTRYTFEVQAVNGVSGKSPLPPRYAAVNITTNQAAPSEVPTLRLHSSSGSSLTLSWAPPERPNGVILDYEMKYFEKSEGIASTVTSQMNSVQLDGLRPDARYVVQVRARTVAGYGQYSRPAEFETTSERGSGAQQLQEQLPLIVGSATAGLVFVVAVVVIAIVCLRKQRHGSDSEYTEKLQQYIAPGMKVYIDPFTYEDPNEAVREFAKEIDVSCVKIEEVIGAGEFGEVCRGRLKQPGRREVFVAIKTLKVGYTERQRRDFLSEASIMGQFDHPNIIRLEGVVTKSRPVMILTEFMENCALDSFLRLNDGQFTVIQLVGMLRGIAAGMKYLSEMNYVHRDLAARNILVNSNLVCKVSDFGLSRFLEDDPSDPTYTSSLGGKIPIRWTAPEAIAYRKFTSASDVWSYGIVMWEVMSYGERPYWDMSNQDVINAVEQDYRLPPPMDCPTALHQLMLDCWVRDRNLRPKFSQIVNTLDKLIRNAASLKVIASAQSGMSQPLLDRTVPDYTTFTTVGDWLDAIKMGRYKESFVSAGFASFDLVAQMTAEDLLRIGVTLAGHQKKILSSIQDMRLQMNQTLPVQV
Source text: as §1

EGFR = molecular target: T12, EGFR (Homo sapiens, UniProt P00533); conditions: Conc 1000 nM; read-out: Percent inhibition, EGFR
T12 construct: purchased Ambit KINOMEscan
Source text: as §1

cRAF = molecular target: T13, cRAF (Homo sapiens, UniProt P04049); conditions: Conc 1000 nM; read-out: Percent inhibition, cRAF
T13 construct: purchased Ambit KINOMEscan
Source text: as §1

TTK = molecular target: T14, TTK (Homo sapiens, UniProt P33981); conditions: Conc 1000 nM; read-out: Percent inhibition, TTK
T14 construct: purchased Ambit (KINOMEscan)
Source text: as §1

RET = molecular target: T15, RET (Homo sapiens, UniProt P07949); conditions: read-out: Percent inhibition, RET; for inhibition at 1 µM: Conc 1000 nM
T15 construct: purchased Ambit (KINOMEscan)
T15 sequence (P07949 29-1114): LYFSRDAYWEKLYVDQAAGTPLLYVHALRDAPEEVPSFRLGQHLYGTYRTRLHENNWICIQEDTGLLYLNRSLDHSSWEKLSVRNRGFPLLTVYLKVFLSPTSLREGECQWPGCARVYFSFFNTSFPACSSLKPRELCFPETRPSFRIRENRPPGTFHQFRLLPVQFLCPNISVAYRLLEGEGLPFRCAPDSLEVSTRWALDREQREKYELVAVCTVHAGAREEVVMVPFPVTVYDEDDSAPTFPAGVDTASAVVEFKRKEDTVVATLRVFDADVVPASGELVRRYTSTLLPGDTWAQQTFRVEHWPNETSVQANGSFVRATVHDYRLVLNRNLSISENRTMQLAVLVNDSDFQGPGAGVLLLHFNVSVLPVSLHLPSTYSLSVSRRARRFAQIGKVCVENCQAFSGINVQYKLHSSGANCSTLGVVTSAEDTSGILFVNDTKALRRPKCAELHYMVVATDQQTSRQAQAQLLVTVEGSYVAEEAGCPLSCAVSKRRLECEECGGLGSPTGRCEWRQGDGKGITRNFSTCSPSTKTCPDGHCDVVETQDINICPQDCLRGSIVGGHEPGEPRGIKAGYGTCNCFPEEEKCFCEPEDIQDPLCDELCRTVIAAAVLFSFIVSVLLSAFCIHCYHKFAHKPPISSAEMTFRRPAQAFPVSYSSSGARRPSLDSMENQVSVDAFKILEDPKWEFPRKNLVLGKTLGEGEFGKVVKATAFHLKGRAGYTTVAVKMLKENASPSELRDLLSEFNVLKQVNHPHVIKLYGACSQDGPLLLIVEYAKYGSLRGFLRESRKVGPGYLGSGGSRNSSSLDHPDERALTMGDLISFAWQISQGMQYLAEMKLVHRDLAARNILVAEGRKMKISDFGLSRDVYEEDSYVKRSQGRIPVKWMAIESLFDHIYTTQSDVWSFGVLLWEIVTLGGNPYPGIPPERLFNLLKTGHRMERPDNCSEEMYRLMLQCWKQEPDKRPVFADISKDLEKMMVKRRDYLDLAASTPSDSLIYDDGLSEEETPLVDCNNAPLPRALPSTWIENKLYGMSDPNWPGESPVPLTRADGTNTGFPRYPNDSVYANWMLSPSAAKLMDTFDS
Source text: as §1

BMX = molecular target: T16, BMX (Homo sapiens, UniProt P51813); conditions: Conc 1000 nM; read-out: Percent inhibition, BMX
T16 construct: purchased Ambit KINOMEscan
Source text: as §1

LynA = molecular target: T17, LynA (Homo sapiens, UniProt P07948); conditions: Conc 1000 nM; read-out: Percent inhibition, LynA
T17 construct: purchased Ambit (KINOMEscan)
Source text: as §1

MET = molecular target: T18, MET (Homo sapiens, UniProt P08581); conditions: Conc 1000 nM; read-out: Percent inhibition, MET
T18 construct: purchased Ambit (KINOMEscan)
Source text: as §1

p38alpha (MAPK14) = molecular target: T19, p38alpha (MAPK14) (Homo sapiens, UniProt Q16539); conditions: Conc 1000 nM; read-out: Percent inhibition, p38alpha (MAPK14)
T19 construct: purchased Ambit (KINOMEscan)
Source text: as §1

CDK2/cyclinA = molecular target: T20, CDK2/cyclinA (Homo sapiens, UniProt P24941); conditions: read-out: Percent inhibition, CDK2/cyclinA; for inhibition at 1 µM: Conc 1000 nM
T20 construct: purchased Ambit KINOMEscan
Source text: as §1

TYRO3 = molecular target: T21, TYRO3 (Homo sapiens, UniProt Q06418); conditions: Conc 1000 nM; read-out: Percent inhibition, TYRO3
T21 construct: purchased Ambit (KINOMEscan)
Source text: as §1

ROCK1 = molecular target: T22, ROCK1 (Homo sapiens, UniProt Q13464); conditions: Conc 1000 nM; read-out: Percent inhibition, ROCK1
T22 construct: purchased Ambit (KINOMEscan)
Source text: as §1

T1 sequence (P04629 33-796): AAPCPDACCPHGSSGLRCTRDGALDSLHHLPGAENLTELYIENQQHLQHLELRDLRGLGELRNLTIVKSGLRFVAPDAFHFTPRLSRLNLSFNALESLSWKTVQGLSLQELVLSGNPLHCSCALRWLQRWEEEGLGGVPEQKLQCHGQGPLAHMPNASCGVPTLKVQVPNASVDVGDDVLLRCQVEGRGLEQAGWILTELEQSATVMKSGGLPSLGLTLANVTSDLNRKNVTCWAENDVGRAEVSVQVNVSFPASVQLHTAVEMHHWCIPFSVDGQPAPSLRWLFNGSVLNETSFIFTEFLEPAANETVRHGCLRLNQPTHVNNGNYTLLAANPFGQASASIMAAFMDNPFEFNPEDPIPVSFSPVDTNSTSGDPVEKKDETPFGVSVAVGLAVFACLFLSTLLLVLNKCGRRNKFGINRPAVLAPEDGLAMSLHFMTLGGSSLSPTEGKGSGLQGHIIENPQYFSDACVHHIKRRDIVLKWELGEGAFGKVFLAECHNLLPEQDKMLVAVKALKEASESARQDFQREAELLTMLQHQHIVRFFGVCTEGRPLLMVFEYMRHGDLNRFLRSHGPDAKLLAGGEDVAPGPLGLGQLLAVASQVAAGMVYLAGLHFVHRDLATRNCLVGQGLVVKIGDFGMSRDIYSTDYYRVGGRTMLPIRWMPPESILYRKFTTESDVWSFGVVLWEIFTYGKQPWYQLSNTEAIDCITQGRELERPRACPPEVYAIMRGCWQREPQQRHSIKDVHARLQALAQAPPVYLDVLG

Row | SMILES | inhibition at 1 µM (TRKA (NTRK1)) | inhibition at 1 µM (bRAF) | inhibition at 1 µM (MEK1) | inhibition at 1 µM (JNK2) | inhibition at 1 µM (FGFR3) | inhibition at 1 µM (BTK) | inhibition at 1 µM (AURORA-B) | inhibition at 1 µM (IGF1R) | inhibition at 1 µM (PKCalpha) | inhibition at 1 µM (ZAP70) | inhibition at 1 µM (EphB3) | inhibition at 1 µM (EGFR) | inhibition at 1 µM (cRAF) | inhibition at 1 µM (TTK) | inhibition at 1 µM (RET) | inhibition at 1 µM (BMX) | inhibition at 1 µM (LynA) | inhibition at 1 µM (MET) | inhibition at 1 µM (p38alpha (MAPK14)) | inhibition at 1 µM (CDK2/cyclinA) | further results
1 | Nc1ncc(-c2ccccc2)nc1C(=O)Nc1cnccc1N1CCC(C(=O)O)CC1 [GNF7156] | 92% | 46% | 50% | 68% | 60% | 83% | 52% | 19% | 96% | 70% | 12% | 71% | 17% | 29% | 98% | 88% | 56% | 47% | 9% | 90% | inhibition at 1 µM (TYRO3): 52%; inhibition at 1 µM (ROCK1): 9%
2 | CC(C)Oc1ccc(F)c(-c2cnc(N)c(C(=O)Nc3cnccc3N3CCC[C@@H](C(=O)O)C3)n2)c1 [GNF4877] | 80% | 20% | 17% | 51% | 32% | 42% | 49% | 49% | 97% | 94% | 28% | 44% | 18% | 51% | 96% | 43% | 54% | 63% | 6% | 95% | inhibition at 0.2 µM (TRKA (NTRK1); Conc 200 nM): 19%; inhibition at 0.2 µM (PKCalpha; Conc 200 nM): 0%; inhibition at 0.2 µM (ZAP70; Conc 200 nM): 0%; inhibition at 0.2 µM (RET; Conc 200 nM): 26%; inhibition at 0.2 µM (CDK2/cyclinA; Conc 200 nM): 67%; inhibition at 1 µM (TYRO3): 46%; inhibition at 1 µM (ROCK1): 36%
